According to patent US6875451B2, “Compositions and methods for the treatment of primary and metastatic neoplastic diseases using arsenic compounds” (PolaRx Biopharmaceuticals Inc., priority 1997, dated 2005):

Assays:
Type in all cases: cell-based
BT-549 = assay: SRB growth assay, 2 days exposure, breast cancer
Method: (§1) Arsenic trioxide (1 mg/ml, 10 mg/ampoule, manufactured by Taylor Pharmaceuticals, Decatur, Ill.) was tested at five concentrations each at 10-fold dilutions, i.e., 10^−5, 10^−6, 10^−7, 10^−8 and 10^−9 μg/ml.
(§2) The in vitro tests were performed by incubating the test cells in the presence of the indicated concentration of arsenic trioxide under standard culture conditions for a designated period of time, which is followed by a sulforhodamine B (SRB) protein assay to estimate cell viability or growth. The cell lines are organized into subpanels according to the origin of the cell lines, e.g., leukemia, breast cancer, etc. A description of the cell lines and method of testing is described in Monk et al. (1997, Anticancer Drug Des. 12:533-41) and Weinstein et al., (1997, Science 275:343-9), which are incorporated herein in their entirety.
(§3) The measurement of an effect is expressed in Percentage Growth (PG). The measured effect of the compound on a cell line is calculated according to one or the other of the following two expressions: If (Mean ODtest−Mean ODzero)≧0. then PG=100×(Mean ODtest−Mean ODzero)/(Mean ODctrl−Mean ODzero) If (Mean ODtest−Mean ODzero)<0. then PG=100×(Mean ODtest−Mean ODzero)/(Mean ODzero where: • Mean ODzero=the average of optical density measurements of SRB-derived color just before exposure of cells to the test compounds; • Mean ODtest=the average of optical density measurements of SRB-derived color after exposure of cells to the test compound for a designated period of time; and • Mean ODctrl=the average of optical density measurements of SRB-derived color after with no exposure of cells to the test compound for a designated period of time
(§4) The first two columns describe the subpanel (e.g., leukemia) and cell line (e.g., CCRF-CEM) involved. The next two columns list the Mean ODzero and Mean ODctrl; the next five columns list the Mean ODtest for each of five different concentrations. Each concentration is expressed as the log10 (molar or μg/ml). The next five columns list the calculated PGs for each concentration. The response parameters GI50, TGI and LC50 are interpolated values representing the concentrations at which the PG is +50, 0, and −50, respectively. Sometimes these response parameters cannot be obtained by interpolation. If, for instance, all of the PGs in a given row exceed +50, then none of the three parameters can be obtained by interpolation. In such a case, the value given for each response parameter is the highest concentration tested and is preceded by a “>” sign. This practice is extended similarly to the other possible situations where a response parameter cannot be obtained by interpolation.
(§5) In the first set, the cells from 56 different cancer cell lines were exposed to five concentrations of arsenic trioxide continuously for two days prior to performing the SRB assay. In the second set, the cells from 50 different cell lines (a subset of the first 56 cell lines, plus the renal cancer cell line 786-0) were exposed continuously for six days prior to the SRB assay.

MCF7 = assay: SRB growth assay, 2 days exposure, breast cancer
Method: as §1, §2, §3, §4, §5

MDA-N = assay: SRB growth assay, 2 days exposure, breast cancer
Method: as §1, §2, §3, §4, §5

NCI/ADR-RES = assay: SRB growth assay, 2 days exposure, breast cancer
Method: as §1, §2, §3, §4, §5

HS 578T = assay: SRB growth assay, 2 days exposure, breast cancer
Method: as §1, §2, §3, §4, §5

MDA-MB-231/ATCC = assay: SRB growth assay, 2 days exposure, breast cancer
Method: as §1, §2, §3, §4, §5

T-47D = assay: SRB growth assay, 2 days exposure, breast cancer
Method: as §1, §2, §3, §4, §5

MDA-MB-435 = assay: SRB growth assay, 2 days exposure, breast cancer
Method: as §1, §2, §3, §4, §5

KM12 = assay: SRB growth assay, 6 days exposure, colon cancer; conditions: KM12, 6 days
Method: as §1, §2, §3, §4, §5

HCT-15 = assay: SRB growth assay, 6 days exposure, colon cancer; conditions: HCT-15, 6 days
Method: as §1, §2, §3, §4, §5

HT29 = assay: SRB growth assay, 6 days exposure, colon cancer; conditions: HT29, 6 days
Method: as §1, §2, §3, §4, §5

[1] = read-out: LC50 (the source's name)

Substance: arsenic trioxide
- TGI (BT-549): >0.0126 ng/mL
- Percent Growth (BT-549; log10 conc −4.9): 26%
- Percent Growth (BT-549; log10 conc −5.9): 84%
- Percent Growth (BT-549; log10 conc −6.9): 108%
- Percent Growth (BT-549; log10 conc −7.9): 110%
- Percent Growth (BT-549; log10 conc −8.9): 114%
- TGI (MCF7): >0.0126 ng/mL
- Percent Growth (MCF7; log10 conc −4.9): 11%
- Percent Growth (MCF7; log10 conc −5.9): 95%
- Percent Growth (MCF7; log10 conc −6.9): 108%
- Percent Growth (MCF7; log10 conc −7.9): 98%
- Percent Growth (MCF7; log10 conc −8.9): 99%
- TGI (MDA-N): >0.0126 ng/mL
- Percent Growth (MDA-N; log10 conc −4.9): 3%
- Percent Growth (MDA-N; log10 conc −5.9): 86%
- Percent Growth (MDA-N; log10 conc −6.9): 91%
- Percent Growth (MDA-N; log10 conc −7.9): 101%
- Percent Growth (MDA-N; log10 conc −8.9): 102%
- TGI (NCI/ADR-RES): >0.0126 ng/mL
- Percent Growth (NCI/ADR-RES; log10 conc −4.9): 45%
- Percent Growth (NCI/ADR-RES; log10 conc −5.9): 92%
- Percent Growth (NCI/ADR-RES; log10 conc −6.9): 104%
- Percent Growth (NCI/ADR-RES; log10 conc −7.9): 99%
- Percent Growth (NCI/ADR-RES; log10 conc −8.9): 118%
- TGI (HS 578T): >0.0126 ng/mL
- Percent Growth (HS 578T; log10 conc −4.9): 42%
- Percent Growth (HS 578T; log10 conc −5.9): 105%
- Percent Growth (HS 578T; log10 conc −6.9): 96%
- Percent Growth (HS 578T; log10 conc −7.9): 105%
- Percent Growth (HS 578T; log10 conc −8.9): 109%
- TGI (MDA-MB-231/ATCC): >0.0126 ng/mL
- Percent Growth (MDA-MB-231/ATCC; log10 conc −4.9): 3%
- Percent Growth (MDA-MB-231/ATCC; log10 conc −5.9): 107%
- Percent Growth (MDA-MB-231/ATCC; log10 conc −6.9): 109%
- Percent Growth (MDA-MB-231/ATCC; log10 conc −7.9): 102%
- Percent Growth (MDA-MB-231/ATCC; log10 conc −8.9): 97%
- TGI (T-47D): 0.00986 ng/mL
- Percent Growth (T-47D; log10 conc −4.9): −10%
- Percent Growth (T-47D; log10 conc −5.9): 81%
- Percent Growth (T-47D; log10 conc −6.9): 133%
- Percent Growth (T-47D; log10 conc −7.9): 109%
- Percent Growth (T-47D; log10 conc −8.9): 88%
- TGI (MDA-MB-435): >0.0126 ng/mL
- Percent Growth (MDA-MB-435; log10 conc −4.9): 21%
- Percent Growth (MDA-MB-435; log10 conc −5.9): 94%
- Percent Growth (MDA-MB-435; log10 conc −6.9): 105%
- Percent Growth (MDA-MB-435; log10 conc −7.9): 93%
- Percent Growth (MDA-MB-435; log10 conc −8.9): 94%
- TGI (KM12): >1.26E−05
- Mean Optical Densities (KM12; Log 10 Concentration −4.9): 0.017
- Percent Growth (KM12; Log 10 Concentration −4.9): 1%
- Mean Optical Densities (KM12; Log 10 Concentration −5.9): 0.036
- Percent Growth (KM12; Log 10 Concentration −5.9): 4%
- Mean Optical Densities (KM12; Log 10 Concentration −6.9): 0.507
- Percent Growth (KM12; Log 10 Concentration −6.9): 83%
- Mean Optical Densities (KM12; Log 10 Concentration −7.9): 0.533
- Percent Growth (KM12; Log 10 Concentration −7.9): 87%
- Mean Optical Densities (KM12; Log 10 Concentration −8.9): 0.487
- Percent Growth (KM12; Log 10 Concentration −8.9): 80%
- CC50 (KM12; [1]): > 12.6 µM
- TGI (HCT-15): >1.26E−05
- Mean Optical Densities (HCT-15; Log 10 Concentration −4.9): 0.404
- Percent Growth (HCT-15; Log 10 Concentration −4.9): 10%
- Mean Optical Densities (HCT-15; Log 10 Concentration −5.9): 3.432
- Percent Growth (HCT-15; Log 10 Concentration −5.9): 89%
- Mean Optical Densities (HCT-15; Log 10 Concentration −6.9): 4.227
- Percent Growth (HCT-15; Log 10 Concentration −6.9): 110%
- Mean Optical Densities (HCT-15; Log 10 Concentration −7.9): 3.921
- Percent Growth (HCT-15; Log 10 Concentration −7.9): 102%
- Mean Optical Densities (HCT-15; Log 10 Concentration −8.9): 3.965
- Percent Growth (HCT-15; Log 10 Concentration −8.9): 103%
- CC50 (HCT-15; [1]): > 12.6 µM
- TGI (HT29): >1.26E−05
- Mean Optical Densities (HT29; Log 10 Concentration −4.9): 0.027
- Percent Growth (HT29; Log 10 Concentration −4.9): 0%
- Mean Optical Densities (HT29; Log 10 Concentration −5.9): 1.476
- Percent Growth (HT29; Log 10 Concentration −5.9): 48%
- Mean Optical Densities (HT29; Log 10 Concentration −6.9): 2.706
- Percent Growth (HT29; Log 10 Concentration −6.9): 88%
- Mean Optical Densities (HT29; Log 10 Concentration −7.9): 2.988
- Percent Growth (HT29; Log 10 Concentration −7.9): 98%
- Mean Optical Densities (HT29; Log 10 Concentration −8.9): 3.189
- Percent Growth (HT29; Log 10 Concentration −8.9): 104%
- CC50 (HT29; [1]): > 12.6 µM
